From ChEMBL document CHEMBL5608199, “Quaternized antimicrobial peptide mimics based on harmane as potent anti-MRSA agents by multi-target mechanism covering cell wall, cell membrane and intracellular targets” (Eur J Med Chem, 2024)
≈ marks a conversion by molar mass, not a printed value.

Assays:
Type in all cases: functional
Staphylococcus aureus [1] = assay: Antibacterial activity against methicillin-resistant Staphylococcus aureus ATCC 43300 incubated for 18 hrs by two fold serial broth dilution method
Staphylococcus aureus [2] = assay: Antibacterial activity against methicillin-resistant Staphylococcus aureus CGMCC 1.12409 incubated for 18 hrs by two fold serial broth dilution method
Staphylococcus aureus [3] = assay: Antibacterial activity against Staphylococcus aureus CMCC 26003 incubated for 18 hrs by two fold serial broth dilution method
Staphylococcus aureus [4] = assay: Antibacterial activity against methicillin-resistant Staphylococcus aureus ATCC 33591 incubated for 18 hrs by two fold serial broth dilution method
Staphylococcus aureus [5] = assay: Antibacterial activity against Staphylococcus aureus ATCC 29213 incubated for 18 hrs by two fold serial broth dilution method
Escherichia coli = assay: Antibacterial activity against Escherichia coli ATCC 8739 incubated for 18 hrs by two fold serial broth dilution method
Staphylococcus aureus [6] = assay: Drug resistance, ratio of MIC for methicillin-resistant Staphylococcus aureus ATCC 33591 after 12 passages to MIC for methicillin-resistant Staphylococcus aureus ATCC 33591 during first exposure
Staphylococcus aureus [7] = assay: Drug resistance, ratio of MIC for methicillin-resistant Staphylococcus aureus ATCC 33591 after 9 passages to MIC for methicillin-resistant Staphylococcus aureus ATCC 33591 during first exposure
Staphylococcus aureus [8] = assay: Drug resistance, ratio of MIC for methicillin-resistant Staphylococcus aureus ATCC 33591 after 10 passages to MIC for methicillin-resistant Staphylococcus aureus ATCC 33591 during first exposure

| SMILES | MIC (Staphylococcus aureus [1]) [µg/mL] | MIC (Staphylococcus aureus [2]) [µg/mL] | MIC (Staphylococcus aureus [3]) [µg/mL] | MIC (Staphylococcus aureus [4]) [µg/mL] | MIC (Staphylococcus aureus [5]) [µg/mL] | MIC (Escherichia coli) [µg/mL] | Ratio (Staphylococcus aureus [6]) | Ratio (Staphylococcus aureus [7]) | Ratio (Staphylococcus aureus [8]) |
| --- | --- | --- | --- | --- | --- | --- | --- | --- | --- |
| CCC[n+]1ccc2c3ccccc3n(CC[N+](C)(C)CCC)c2c1C.[Br-].[Br-] | > 128 | > 128 | > 128 | > 128 | > 128 | > 128 | – | – | – |
| Cc1c2[nH]c3ccccc3c2cc[n+]1C.[I-] | > 128 | > 128 | > 128 | > 128 | > 128 | > 128 | – | – | – |
| CCCC[n+]1ccc2c3ccccc3n(CCN(CC)CC)c2c1C.[Br-] | 128 | 64 | 64 | 64 | > 128 | > 128 | – | – | – |
| Cc1c2c(cc[n+]1C)c1ccccc1n2CCCCCCCn1c2ccccc2c2cc[n+](C)c(C)c21.[I-].[I-] | 2 | 1 | 0.5 | 0.5 | 8 | 16 | – | – | – |
| CC[n+]1ccc2c3ccccc3n(CC[N+](C)(C)CC)c2c1C.[Br-].[Br-] | > 128 | > 128 | > 128 | > 128 | > 128 | > 128 | – | – | – |
| [2H]C([2H])([2H])[n+]1ccc2c3ccccc3n(CC[N+](C)(C)C([2H])([2H])[2H])c2c1C.[I-].[I-] | > 128 | > 128 | > 128 | > 128 | > 128 | > 128 | – | – | – |
| CCC[n+]1ccc2c3ccccc3n(CCN(CC)CC)c2c1C.[Br-] | > 128 | > 128 | 64 | 128 | > 128 | > 128 | – | – | – |
| CC[n+]1ccc2c3ccccc3n(CC[N+](CC)(CC)CC)c2c1C.[Br-].[Br-] | > 128 | > 128 | > 128 | > 128 | > 128 | > 128 | – | – | – |
| [2H]C([2H])([2H])[n+]1ccc2c3ccccc3n(CC[N+](CC)(CC)C([2H])([2H])[2H])c2c1C.[I-].[I-] | > 128 | > 128 | > 128 | > 128 | > 128 | > 128 | – | – | – |
| Cc1nccc2c3ccccc3n(CCN(C)C)c12 | > 128 | > 128 | > 128 | > 128 | > 128 | 64 (≈ 253 µM) | – | – | – |
| Cc1nccc2c3ccccc3n(CCCCCn3c4ccccc4c4ccnc(C)c43)c12 | > 128 | > 128 | > 128 | > 128 | > 128 | > 128 | – | – | – |
| CCn1cc(C(=O)O)c(=O)c2cc(F)c(N3CCNCC3)cc21 [NORFLOXACIN] | – | – | – | – | – | – | 2 | 16 | >16 |
| CCCCC[n+]1ccc2c3ccccc3n(CCN(CC)CC)c2c1C.[Br-] | 32 | 64 | 16 | 32 | 64 | 128 | – | – | – |
